pEC50: −log10 of the molar value. Read-outs that look alike come from different tables or passages of the source.

The target of this test is T1, α-7 nicotinic ACh receptor ion channels expressed in mammalian HEK 293 cells (Rattus norvegicus, UniProt Q05941).
T1 construct: expressed in transfected cells
In words: Ca2+-sensitive, fluorescence-based assay for α-7 nicotinic acetylcholine receptor channel function (FLIPR). Type of test: cell-based. The protocol: II) A Ca^2+-Sensitive, Fluorescence-Based Assay α-7 for Nicotinic Acetylcholine Receptor Channel Function In Mammalian Cells (“FLIPR”).
Lead compounds are evaluated for agonist activity at α-7, α3β4, α4αβ2, and α1β1δ1ε sub-types of nicotinic ACh receptor ion channels expressed in mammalian HEK 293 cells. Agonist potency and efficacy values are determined from kinetic fluorescence Ca^2+ influx measurements made using a 384 well FLIPR (Fluorescence Image Plate Reader). […] In this assay, channel expressing HEK cell lines seeded in 384 well assay plates are loaded with a membrane permeant fluorescent Ca^2+ indicator dye, whose 510 nm green emission signal increases in response to elevation of intracellular Ca^2+ concentration. The basal fluorescence from the cells is monitored in real time, followed by the acute addition of test compounds.
Reagents: The acetomethoxy (AM) ester of the Ca^2+ indicator dye Fluo-4 was obtained from InVitrogen, (Carlsbad, Calif.). Acetylcholine and all buffer constituents were purchased from Sigma Chemical Company, St. Louis, Mo. G418 and Minimal Essential Medium were purchased from InVitrogen Life Technologies, Carlsbad, Calif. Fetal bovine serum was purchased from (InVitrogen, Carlsbad, Calif.).
HEK-293 cells were grown in Minimal Essential Medium containing 10% (v/v) fetal bovine serum at 37° C. in a 5% CO2 incubator. HEK-293 cells stably expressing the ion channels were grown in the same medium with the addition of 500 μg/ml G418.
HEK-293 cells expressing the ion channels of interest were plated in 384 well, black-walled, clear-bottomed, poly-D-lysine coated plates at a density of ˜20,000 cells/well in 20 μl of Minimal Essential Medium containing 10% (v/v) fetal bovine serum and incubated for 2 days at 29° C. in a 5% CO2 incubator. Prior to assay, cells were loaded with the Fluo-4 AM ester. […] Dye loading was allowed to proceed for 90 minutes at room temperature at which time the dye loading solution was removed and replaced with 40 μl/well of Hanks buffer. Cells loaded with dye were loaded onto a FLIPR384 (Molecular Devices, Sunnyvale, Calif.). Fluo-4 dye was excited using the 488 nm line of an argon laser. Emission was filtered using a 540+/−30 nm bandpass filter. For evaluation of the effects of test compounds using the Ca^2+ flux assay, compounds to be tested were provided in assay ready plates. For nicotinic receptor ion channel expressing cells, the assay was initiated by the addition of 20 μl/well of Hanks buffer containing test compounds. For all assays, data were collected at 1 Hz for 10 seconds (baseline), at which time the compound containing stimulus buffers are added, and further measurements collected at 0.33 Hz for 3 min.
The statistical robustness of the nicotinic receptor Ca^2+ flux assays is determined from blanks and totals wells. […] The raw fluorescence units data files generated on the FLIPR plate reader are automatically exported and processed by in-house data analysis tools. The reduced percent activation data for each concentration of test compound are fit using MathIQ fitting engine (ID Business Solutions Limited, Surrey, UK). Data were analyzed by fitting maximum amplitudes of change in fluorescence, for Ca^2+ flux for a given condition of test compound. […] Test compound efficacy values (Ymax values) are expressed relative to a maximal response to acetylcholine in the total wells.

Setting [1] is: activity class based on EC50, Ca2+ influx, read-out: FLIPR α7 actvity rating (EC50).
Setting [2] is: agonist potency, Ca2+ influx, read-out: FLIPR α7-HI (EC50).
[3] abbreviates: FLIPR α7-HI (EC50, nM), agonist potency, Ca2+ influx.
The mark [4] stands for this setting: FLIPR α7 actvity rating (EC50, nM), activity class based on EC50, Ca2+ influx.

T1 sequence (Q05941 23-502): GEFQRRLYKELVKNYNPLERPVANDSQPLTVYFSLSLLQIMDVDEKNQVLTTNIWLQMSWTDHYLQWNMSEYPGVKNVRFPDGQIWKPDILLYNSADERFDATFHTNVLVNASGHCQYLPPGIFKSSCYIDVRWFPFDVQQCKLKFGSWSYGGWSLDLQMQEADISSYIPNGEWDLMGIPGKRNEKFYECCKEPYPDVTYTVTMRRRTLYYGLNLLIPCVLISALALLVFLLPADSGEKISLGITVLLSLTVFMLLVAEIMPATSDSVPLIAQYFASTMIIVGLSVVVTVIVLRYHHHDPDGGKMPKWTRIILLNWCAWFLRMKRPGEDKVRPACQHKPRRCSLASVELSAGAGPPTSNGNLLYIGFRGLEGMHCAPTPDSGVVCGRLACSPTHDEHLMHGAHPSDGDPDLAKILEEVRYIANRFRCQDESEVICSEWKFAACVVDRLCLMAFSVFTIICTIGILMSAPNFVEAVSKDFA

One may read the pEC50 as the EC50 on a negative log10 scale, so that one unit is a factor of ten. Consider `c1ccc2sc(NC3=NC[C@@]4(C[N@]5CCC[C@H]4C5)O3)nc2c1` (relative stereo) [Example 1, (5S*,5′R*)—N-(benzo[d]thiazol-2-yl)-4′H-1-azaspiro[bicyclo[3.2.1]octane-6,5′-oxazol]-2′-amine], for which the pEC50 was 4.00 to 6.00 under setting [1] and < 4.00 under setting [2].
One may read the EC50 as the concentration needed to bring the measured effect to its halfway point. The low end stands for an effect from little substance, the high end for a need for much substance. `c1cnc2sc(NC3=NC[C@@]4(C[N@]5CCC[C@H]4C5)O3)nc2c1` (relative stereo) [Example 3, (5S*,5′R*)—N-(thiazolo[5,4-b]pyridin-2-yl)-4′H-1-azaspiro[bicyclo[3.2.1]octane-6,5′-oxazol]-2′-amine]: the EC50 by setting is: under setting [3], 1080 nM; under setting [4], 100 to 1000 nM.
The like results for `c1ccc2cc(NC3=NC[C@@]4(C[N@]5CCC[C@H]4C5)O3)ncc2c1` (single isomer, unassigned) [Example 4, (5S*,5R*)—N-(isoquinolin-3-yl)-4′H-1-azaspiro[bicyclo[3.2.1]octane-6,5′-oxazol]-2′-amine] were, in that order, 820 nM and < 100 nM.
`c1cnc2sc(NC3=NCC4(CN5CCCC4C5)O3)nc2c1` (single isomer, unassigned) [Example 5b] came in with an EC50 under setting [3] of 88 nM. Besides, the negative logarithm of the EC50 (pEC50) (read-out: FLIPR α7 actvity rating (EC50), activity class based on EC50, Ca2+ influx) was > 7.00.
Regarding `c1cnc2sc(NC3=NC[C@@]4(C[N@@]5CCC[C@@H]4C5)O3)nc2c1` (relative stereo) [Example 5, (5R*,5′R*)—N-(thiazolo[5,4-b]pyridin-2-yl)-4′H-1-azaspiro[bicyclo[3.2.1]octane-6,5′-oxazol]-2′-amine], the EC50 is 132 nM under setting [3] and < 100 nM under setting [4].
On to `COc1ccc2nc(NC3=NC[C@@]4(C[N@]5CCC[C@H]4C5)O3)sc2c1` (relative stereo) [Example 2, (5S*,5′R*)—N-(6-methoxybenzo[d]thiazol-2-yl)-4′H-1-azaspiro[bicyclo[3.2.1]octane-6,5′-oxazol]-2′-amine], for which the negative-log EC50 (pEC50) was 6.00 to 7.00 under setting [1] and 5.69 under setting [2].
With `c1cnc2sc(NC3=NCC4(CN5CCCC4C5)O3)nc2c1` (single isomer, unassigned) [Example 5a], the 50% effective concentration (EC50) was 105 nM under setting [3] and < 100 nM under setting [4].

(Values after patent publication US8507516B2, “Azabicyclic compounds as alpha-7 nicotinic acetylcholine receptor ligands” (Bristol-Myers Squibb Company, priority 2009, dated 2013).)
